Experimental data: article PMC6002545, “Deciphering the late steps of rifamycin biosynthesis” (Nature Communications, 2018)

Target: T1, Rif16 (Amycolatopsis mediterranei, UniProt A0A0H3CVZ6)
T1 construct: gene AMED_0653; N-terminally His6-tagged Rif16 (rif16 from A. mediterranei S699)
Assay: Type I spectral substrate binding titration; co-crystal structure at […] Å

T1 sequence (A0A0H3CVZ6 entry or part of it): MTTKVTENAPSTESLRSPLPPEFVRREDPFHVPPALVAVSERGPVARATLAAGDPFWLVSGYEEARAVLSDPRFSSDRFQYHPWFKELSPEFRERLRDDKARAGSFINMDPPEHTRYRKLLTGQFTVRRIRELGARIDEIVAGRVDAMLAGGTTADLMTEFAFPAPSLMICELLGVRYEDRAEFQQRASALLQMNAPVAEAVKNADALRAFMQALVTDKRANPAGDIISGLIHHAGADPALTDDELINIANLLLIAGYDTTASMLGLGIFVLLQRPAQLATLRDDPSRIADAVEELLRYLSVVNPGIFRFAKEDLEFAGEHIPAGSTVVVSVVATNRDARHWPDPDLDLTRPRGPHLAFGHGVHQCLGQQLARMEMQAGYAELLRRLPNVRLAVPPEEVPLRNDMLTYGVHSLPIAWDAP

Kd: 1300 ± 100 nM
SMILES: CO[C@H]1/C=C/O[C@@]2(C)Oc3c(C)c(O)c4c(O)c(cc(OC(=O)CO)c4c3C2=O)NC(=O)/C(C)=C/C=C/[C@H](C)[C@H](O)[C@@H](C)[C@@H](O)[C@@H](C)[C@H](OC(C)=O)[C@@H]1C [R-L, rifamycin L]
